Measured values as given in ChEMBL document CHEMBL3885881, “DrugMatrix”.

Species on record: Rattus norvegicus
Experiment: DrugMatrix - Regimen: Daily Repeat
Format: toxicity, organism-based, Sprague-Dawley
Design: regimen Daily Repeat, gender Male, age 6-8 weeks
Conditions: in vivo, po, route oral GAVAGE, […]; for URIC ACID / ALANINE AMINOTRANSFERASE / ALKALINE PHOSPHATASE / ASPARTATE AMINOTRANSFERASE / BLOOD UREA NITROGEN / CARBON DIOXIDE / CHLORIDE / CHOLESTEROL / CREATINE PHOSPHOKINASE / CREATININE / GLUCOSE / LACTATE DEHYDROGENASE / LIPASE / PHOSPHORUS / POTASSIUM / SODIUM / TOTAL BILIRUBIN / TOTAL PROTEIN: tissue Plasma; for ABSOLUTE BASOPHIL / ABSOLUTE EOSINOPHIL / ABSOLUTE LYMPHOCYTE / ABSOLUTE MONOCYTE / ABSOLUTE SEGMENTED NEUTROPHIL / BASOPHIL / EOSINOPHIL / ERYTHROCYTE COUNT / HEMATOCRIT / HEMOGLOBIN / LEUKOCYTE COUNT / LYMPHOCYTE / MEAN CORPUSCULAR HEMOGLOBIN / MEAN CORPUSCULAR HEMOGLOBIN CONCENTRATION / MEAN CORPUSCULAR VOLUME / MONOCYTE / NEUTROPHIL / NUCLEATED RED BLOOD CELLS / PLATELET COUNT: tissue Blood
[1] = 10 mg/kg, 120 h, dose level Low, time 5 day
[2] = 1100 mg/kg, 72 h, dose level High, time 3 day
[3] = 1100 mg/kg, 120 h, dose level High, time 5 day

CCOC(=O)C1=C(C)NC(C)=C(C(=O)OC)C1c1cccc([N+](=O)[O-])c1 (stereo unspecified) [NITRENDIPINE]
URIC ACID (10 mg/kg, 72 h, dose level Low, time 3 day): 0.7 mg/dL | ABSOLUTE BASOPHIL [1]: 0 CELLS/uL | ABSOLUTE EOSINOPHIL [1]: 0 CELLS/uL | ABSOLUTE LYMPHOCYTE [1]: 10446 CELLS/uL | ABSOLUTE MONOCYTE [1]: 116 CELLS/uL | ABSOLUTE SEGMENTED NEUTROPHIL [1]: 1038 CELLS/uL | BASOPHIL [1]: 0% | EOSINOPHIL [1]: 0% | ERYTHROCYTE COUNT [1]: 5.06 x10E6/uL | HEMATOCRIT [1]: 32.77% | HEMOGLOBIN [1]: 12.73 G/DL | LEUKOCYTE COUNT [1]: 11.6 x10E3/uL | LYMPHOCYTE [1]: 90% | MEAN CORPUSCULAR HEMOGLOBIN [1]: 25.2 pg | MEAN CORPUSCULAR HEMOGLOBIN CONCENTRATION [1]: 38.87 G/DL | MEAN CORPUSCULAR VOLUME [1]: 64.8 fL | MONOCYTE [1]: 1% | NEUTROPHIL [1]: 9% | NUCLEATED RED BLOOD CELLS [1]: 0 /100WBC | PLATELET COUNT [1]: 1057 x10E3/uL | ALANINE AMINOTRANSFERASE [1]: 72 u/L | ALKALINE PHOSPHATASE [1]: 422.33 u/L | ASPARTATE AMINOTRANSFERASE [1]: 98 u/L | BLOOD UREA NITROGEN [1]: 15 mg/dL | CARBON DIOXIDE [1]: 32.33 mmol/L | CHLORIDE [1]: 101 MEQ/L | CHOLESTEROL [1]: 70.67 mg/dL | CREATINE PHOSPHOKINASE [1]: 376.67 u/L | CREATININE [1]: 0.17 mg/dL | GLUCOSE [1]: 143 mg/dL | LACTATE DEHYDROGENASE [1]: 166.67 u/L | LIPASE [1]: 9.67 u/L | PHOSPHORUS [1]: 10.6 mg/dL | POTASSIUM [1]: 5.57 MEQ/L | SODIUM [1]: 144.07 MEQ/L | TOTAL BILIRUBIN [1]: 0.23 mg/dL | TOTAL PROTEIN [1]: 6.03 G/DL | URIC ACID [1]: 0.53 mg/dL | ABSOLUTE BASOPHIL [2]: 0 CELLS/uL | ABSOLUTE EOSINOPHIL [2]: 21.67 CELLS/uL | ABSOLUTE LYMPHOCYTE [2]: 8591 CELLS/uL | ABSOLUTE MONOCYTE [2]: 68 CELLS/uL | ABSOLUTE SEGMENTED NEUTROPHIL [2]: 719.33 CELLS/uL | BASOPHIL [2]: 0% | EOSINOPHIL [2]: 0.33% | ERYTHROCYTE COUNT [2]: 5.96 x10E6/uL | HEMATOCRIT [2]: 36.87% | HEMOGLOBIN [2]: 14.27 G/DL | LEUKOCYTE COUNT [2]: 9.4 x10E3/uL | LYMPHOCYTE [2]: 91% | MEAN CORPUSCULAR HEMOGLOBIN [2]: 23.93 pg | MEAN CORPUSCULAR VOLUME [2]: 61.87 fL | MONOCYTE [2]: 0.67% | NEUTROPHIL [2]: 8% | NUCLEATED RED BLOOD CELLS [2]: 0 /100WBC | PLATELET COUNT [2]: 1329.67 x10E3/uL | ALANINE AMINOTRANSFERASE [2]: 96.67 u/L | ALKALINE PHOSPHATASE [2]: 346 u/L | ASPARTATE AMINOTRANSFERASE [2]: 88.67 u/L | BLOOD UREA NITROGEN [2]: 13.33 mg/dL | CARBON DIOXIDE [2]: 30 mmol/L | CHLORIDE [2]: 103.33 MEQ/L | CHOLESTEROL [2]: 57.33 mg/dL | CREATINE PHOSPHOKINASE [2]: 323.33 u/L | CREATININE [2]: 0.14 mg/dL | GLUCOSE [2]: 160 mg/dL | LACTATE DEHYDROGENASE [2]: 142.67 u/L | LIPASE [2]: 9.67 u/L | PHOSPHORUS [2]: 9.8 mg/dL | POTASSIUM [2]: 4.65 MEQ/L | SODIUM [2]: 145.2 MEQ/L | TOTAL BILIRUBIN [2]: 0.2 mg/dL | TOTAL PROTEIN [2]: 5.2 G/DL | URIC ACID [2]: 0.4 mg/dL | ABSOLUTE BASOPHIL [3]: 0 CELLS/uL | ABSOLUTE EOSINOPHIL [3]: 24.33 CELLS/uL | ABSOLUTE LYMPHOCYTE [3]: 5730.33 CELLS/uL | ABSOLUTE MONOCYTE [3]: 63.33 CELLS/uL | ABSOLUTE SEGMENTED NEUTROPHIL [3]: 515.33 CELLS/uL | BASOPHIL [3]: 0% | EOSINOPHIL [3]: 0.33% | ERYTHROCYTE COUNT [3]: 6.09 x10E6/uL | HEMATOCRIT [3]: 37.57% | HEMOGLOBIN [3]: 14.23 G/DL | LEUKOCYTE COUNT [3]: 6.33 x10E3/uL | LYMPHOCYTE [3]: 90.67% | MEAN CORPUSCULAR HEMOGLOBIN [3]: 23.4 pg | MEAN CORPUSCULAR HEMOGLOBIN CONCENTRATION [3]: 37.87 G/DL | MEAN CORPUSCULAR VOLUME [3]: 61.7 fL | MONOCYTE [3]: 1% | NEUTROPHIL [3]: 8% | NUCLEATED RED BLOOD CELLS [3]: 0 /100WBC | PLATELET COUNT [3]: 1353.67 x10E3/uL | ALANINE AMINOTRANSFERASE [3]: 65.67 u/L | ALKALINE PHOSPHATASE [3]: 214.33 u/L | ASPARTATE AMINOTRANSFERASE [3]: 85.67 u/L | BLOOD UREA NITROGEN [3]: 11.67 mg/dL | CARBON DIOXIDE [3]: 29 mmol/L | CHLORIDE [3]: 102.67 MEQ/L | CHOLESTEROL [3]: 58.33 mg/dL | CREATINE PHOSPHOKINASE [3]: 328.33 u/L | CREATININE [3]: 0.15 mg/dL | GLUCOSE [3]: 133.67 mg/dL | LACTATE DEHYDROGENASE [3]: 156.33 u/L | LIPASE [3]: 11.67 u/L | PHOSPHORUS [3]: 8.93 mg/dL | POTASSIUM [3]: 4.8 MEQ/L | SODIUM [3]: 147.07 MEQ/L | TOTAL BILIRUBIN [3]: 0.2 mg/dL | TOTAL PROTEIN [3]: 5.4 G/DL | URIC ACID [3]: 0.47 mg/dL
